Among the data in PubChem BioAssay AID298 (DTP/NCI, 2004) are T/C values, retold here.

The structures appear in SMILES notation. Values joined by “and” are separate entries in the source; they are usually repeats but may differ in a detail not shown here. Identical values can stand only once. Records with an inconclusive call do not appear.

The test system of the experiment is MX-1 breast xenograft, intrarenal, nude mice, tumor weight. Description: NCI In Vivo Anticancer Drug Screen. Data for tumor model Human Mammary Carcinoma MX-1 Xenograft (intrarenal inoculation) in NU/NU BALB/C (nude) mice. Particulars: endpoint: mean tumor weight change, higher = larger tumour. An outline of the steps:
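Efficacy in vivo: tumor measurement or survival of treated animals divided by that of vehicle-dosed controls.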
A general note: In xenograft studies the graft and the host belong to different species.

[1] abbreviates: dose: 150.0 mg/kg/injection, schedule: Q04DX003 (ip), vehicle: Klucel (hydroxypropylcellulose) (HPC).

`CC(=O)C[n+]1ccc(C)cc1Sc1ccccc1C`: the T/C reads like this: (dose: 15.0 mg/kg/injection, schedule: Q04DX003 (ip), vehicle: suspension in saline) 111 % of control; (dose: 30.0 mg/kg/injection, schedule: Q04DX003 (ip), vehicle: suspension in saline) 97 % of control; (dose: 60.0 mg/kg/injection, schedule: Q04DX003 (ip), vehicle: suspension in saline) 80 % of control; (dose: 120.0 mg/kg/injection, schedule: Q04DX003 (ip), vehicle: suspension in saline) 102 % of control.
Take `COc1cc2c(c(OC)c1OC)-c1ccc(OC)c(=O)cc1[C@@H](NC(=O)CCl)CC2`: the T/C by setting is: (dose: 0.5 mg/kg/injection, schedule: Q04DX003 (sc), vehicle: saline with Tween-80) 87 % of control; (dose: 1.0 mg/kg/injection, schedule: Q04DX003 (sc), vehicle: saline with Tween-80) 43 % of control; (dose: 2.0 mg/kg/injection, schedule: Q04DX003 (sc), vehicle: saline with Tween-80) 8 % of control; (dose: 4.0 mg/kg/injection, schedule: Q04DX003 (sc), vehicle: saline with Tween-80) 1 % of control.
As for `CN=C(NC)c1ccc(NC(=O)/C=C\c2ccc(/C=C/C(=O)Nc3ccc(C(=NC)NC)cc3)cc2)cc1`, under “dose: 6.25 mg/kg/injection, schedule: Q04DX003 (ip), vehicle: Klucel (hydroxypropylcellulose) (HPC)”, the T/C was 89 % of control.
For `CCOC1=Cc2c(oc3c(C(C)(C)C)cc(OCC)cc23)OC(C(C)(C)C)=C1`, the T/C was 94 % of control (dose: 37.5 mg/kg/injection, schedule: Q04DX003 (sc), vehicle: saline with Tween-80); 98 % of control (dose: 75.0 mg/kg/injection, schedule: Q04DX003 (sc), vehicle: saline with Tween-80); 121 % of control (dose: 150.0 mg/kg/injection, schedule: Q04DX003 (sc), vehicle: saline with Tween-80); 92 % of control and 111 % of control (dose: 300.0 mg/kg/injection, schedule: Q04DX003 (sc), vehicle: saline with Tween-80); 77 % of control (dose: 600.0 mg/kg/injection, schedule: Q04DX003 (sc), vehicle: saline with Tween-80); 73 % of control (dose: 2400.0 mg/kg/injection, schedule: Q04DX003 (sc), vehicle: saline with Tween-80).
Take `S=c1sc2ccccc2n1CN1CCOCC1`: the T/C was 77 % of control and 84 % of control (dose: 75.0 mg/kg/injection, schedule: Q04DX003 (ip), vehicle: saline with Tween-80); 110 % of control and 115 % of control (dose: 150.0 mg/kg/injection, schedule: Q04DX003 (ip), vehicle: saline with Tween-80); 79 % of control and 90 % of control (dose: 300.0 mg/kg/injection, schedule: Q04DX003 (ip), vehicle: saline with Tween-80); 67 % of control and 82 % of control (dose: 600.0 mg/kg/injection, schedule: Q04DX003 (ip), vehicle: saline with Tween-80).
In the case of `C[n+]1c(-c2ccc(NC(=O)c3ccc(C(=O)Nc4ccc(-c5cn6ccccc6[n+]5C)cc4)cc3)cc2)cn2ccccc21`, for the setting “dose: 12.5 mg/kg/injection, schedule: Q04DX003 (ip), vehicle: saline with Tween-80”, the T/C was 41 % of control.
As to `O=C1N[C@@H]2C(=C[C@H](O)[C@@H](O)[C@H]2O)c2cc3c(c(O)c21)OCO3`, where the note is “dose: 1.25 mg/kg/injection, schedule: Q04DX003 (sc), vehicle: saline with Tween-80”, the T/C is 71 % of control.
As for `Cc1ccc(NN=O)nc1`, the T/C was 11 % of control (dose: 9.35 mg/kg/injection, schedule: Q04DX003 (ip), vehicle: water); -9 % of control (dose: 9.37 mg/kg/injection, schedule: Q04DX003 (ip), vehicle: water); 6 % of control (dose: 18.7 mg/kg/injection, schedule: Q04DX003 (ip), vehicle: water); -21 % of control (dose: 18.75 mg/kg/injection, schedule: Q04DX003 (ip), vehicle: water); -69 % of control (dose: 37.5 mg/kg/injection, schedule: Q04DX003 (ip), vehicle: water).
For the compound `CC[C@@H](C)[C@H]([C@H](CC(=O)N1CCC[C@@H]1[C@@H](OC)[C@H](C)C(=O)N[C@H](Cc1ccccc1)c1nccs1)OC)N(C)C(=O)[C@H](NC(=O)[C@@H](C(C)C)N(C)C)C(C)C`, the T/C is, setting by setting: (dose: 13.0 micrograms/kg/injection, schedule: Q04DX003 (ip), vehicle: saline + alcohol) 61 % of control; (dose: 26.0 micrograms/kg/injection, schedule: Q04DX003 (ip), vehicle: saline + alcohol) 50 % of control; (dose: 52.0 micrograms/kg/injection, schedule: Q04DX003 (ip), vehicle: saline + alcohol) 14 % of control.
Consider `Cc1nn(CCO)c(C)c1N=[N+]([O-])c1c(C)nn(CCO)c1C`, for which the T/C (dose: 300.0 mg/kg/injection, schedule: Q04DX003 (sc), vehicle: Klucel (hydroxypropylcellulose) (HPC)) was 109 % of control; the T/C (dose: 600.0 mg/kg/injection, schedule: Q04DX003 (sc), vehicle: Klucel (hydroxypropylcellulose) (HPC)) is 85 % of control; the T/C (dose: 1200.0 mg/kg/injection, schedule: Q04DX003 (sc), vehicle: Klucel (hydroxypropylcellulose) (HPC)) was 102 % of control; the T/C (dose: 2400.0 mg/kg/injection, schedule: Q04DX003 (sc), vehicle: Klucel (hydroxypropylcellulose) (HPC)) is 90 % of control.
Turning to `O=C[C@@H](CO)O[C@H](C=O)c1c[nH]c(=O)[nH]c1=O`, the T/C by setting is: (dose: 25.0 mg/kg/injection, schedule: Q04DX003 (ip), vehicle: saline) 71 % of control; (dose: 37.5 mg/kg/injection, schedule: Q04DX003 (ip), vehicle: saline) 54 % of control; (dose: 100.0 mg/kg/injection, schedule: Q04DX003 (ip), vehicle: saline) 5 % of control and 9 % of control and 28 % of control; (dose: 125.0 mg/kg/injection, schedule: Q04DX003 (ip), vehicle: saline) 4 % of control and 7 % of control.
Turning to `CC[C@@]1(O)C(=O)OCc2c1cc1n(c2=O)Cc2cc3c(N)cccc3nc2-1`, the T/C is, setting by setting: (dose: 0.72 mg/kg/injection, schedule: Q04DX003 (ip), vehicle: saline with Tween-80) 6 % of control; (dose: 1.0 mg/kg/injection, schedule: Q04DX003 (ip), vehicle: saline with Tween-80) -97 % of control; (dose: 1.2 mg/kg/injection, schedule: Q04DX003 (ip), vehicle: saline with Tween-80) -30 % of control; (dose: 2.0 mg/kg/injection, schedule: Q04DX003 (ip), vehicle: saline with Tween-80) -92 % of control and -100 % of control; (dose: 3.33 mg/kg/injection, schedule: Q04DX003 (ip), vehicle: saline with Tween-80) -100 % of control.
In the case of `Cc1ccc2c(c1)C1(C)OC(C=CC1=O)O2` (configuration not stated), the T/C under setting [1] is 94 % of control.
`CCCCOCN(COCCCC)C12CC3CC(CC(C3)C1)C2`: the T/C is, setting by setting: (dose: 100.0 mg/kg/injection, schedule: Q04DX003 (sc), vehicle: saline with Tween-80) 48 % of control; (dose: 200.0 mg/kg/injection, schedule: Q04DX003 (sc), vehicle: saline with Tween-80) 45 % of control; (dose: 400.0 mg/kg/injection, schedule: Q04DX003 (sc), vehicle: saline with Tween-80) 76 % of control.
Consider `CO[C@H](/C(C)=C/C=C/C(C)=C/c1coc(C)n1)[C@H](C)[C@H]1C[C@@H](O)[C@@]2(C)O[C@H]2/C=C/[C@@H](C)[C@@H]2C[C@@H](CC(=O)O2)C[C@H]2O[C@@H]2C(=O)O1`, for which the T/C by setting is: (dose: 0.13 mg/kg/injection, schedule: Q04DX003 (ip), vehicle: other) 62 % of control; (dose: 0.2 mg/kg/injection, schedule: Q04DX003 (ip), vehicle: other) 67 % of control; (dose: 0.25 mg/kg/injection, schedule: Q04DX003 (ip), vehicle: Klucel (hydroxypropylcellulose) (HPC)) 10 % of control; (dose: 0.25 mg/kg/injection, schedule: Q04DX003 (sc), vehicle: Klucel (hydroxypropylcellulose) (HPC)) 46 % of control and 55 % of control and 63 % of control; (dose: 0.3 mg/kg/injection, schedule: Q04DX003 (ip), vehicle: other) 55 % of control; (dose: 0.44 mg/kg/injection, schedule: Q04DX003 (ip), vehicle: other) 27 % of control. Also, the T/C runs as follows: (dose: 0.5 mg/kg/injection, schedule: Q04DX003 (ip), vehicle: Klucel (hydroxypropylcellulose) (HPC)) 7 % of control; (dose: 0.5 mg/kg/injection, schedule: Q04DX003 (sc), vehicle: Klucel (hydroxypropylcellulose) (HPC)) 35 % of control and 36 % of control and 41 % of control; (dose: 1.0 mg/kg/injection, schedule: Q04DX003 (ip), vehicle: Klucel (hydroxypropylcellulose) (HPC)) 5 % of control; (dose: 1.0 mg/kg/injection, schedule: Q04DX003 (sc), vehicle: Klucel (hydroxypropylcellulose) (HPC)) 4 % of control and 19 % of control.
As for `O=C1CNC(=O)N1CN1CCOCC1`, the T/C under setting [1] was 83 % of control; the T/C (dose: 300.0 mg/kg/injection, schedule: Q04DX003 (ip), vehicle: Klucel (hydroxypropylcellulose) (HPC)) was 89 % of control; the T/C (dose: 600.0 mg/kg/injection, schedule: Q04DX003 (ip), vehicle: Klucel (hydroxypropylcellulose) (HPC)) is 81 % of control.
Turning to `COc1ccc(Cl)[n+]([O-])n1`, the T/C reads like this: (dose: 25.0 mg/kg/injection, schedule: Q04DX003 (sc), vehicle: Klucel (hydroxypropylcellulose) (HPC)) 119 % of control; (dose: 50.0 mg/kg/injection, schedule: Q04DX003 (sc), vehicle: Klucel (hydroxypropylcellulose) (HPC)) 111 % of control; (dose: 100.0 mg/kg/injection, schedule: Q04DX003 (sc), vehicle: Klucel (hydroxypropylcellulose) (HPC)) 106 % of control.
